Legend:
SCT adult rats [1] = test: Kinematic analysis of hindlimb motor performance on a treadmill; assay type: in vivo, rat
Description: (§1) Rats were randomly divided into the following three experimental groups: 1) untrained + placebo, 2) untrained + SM-345431 and 3) trained + SM-345431. SCT was performed, and SM-345431 or placebo was administered at the lesion site via the newly developed DDS, which is described in detail below. Starting 1 week post-injury, treadmill training commenced with a BSS. Kinematic tests were performed monthly for 3 months after SCT using a rodent robotic device (Rodent robot 3000, Robomedica Inc.) that primarily assessed the performance of plantar stepping on a treadmill. Treadmill training was continued throughout the experimental period.
A robotic device (rodent robot 3000, Robomedica Inc.) was used to train the SCT rats. Briefly, the device consisted of a computer-controlled BSS, two lightweight robotic arms and a treadmill with variable motorized speeds. The ankles of the hindlimbs of rats were held with a pair of releasable rope cuffs, which were then secured to robotic arms to track ankle trajectory in the horizontal and vertical directions. A computer-controlled body support arm was used to control the load that was applied to the hindlimbs and to maintain body equilibrium. Rats were secured in a cloth vest and attached to the body support arm with a hook-and-loop fabric. Hard rope cuffs were attached to the hindlimbs of rats with the robotic arm during training.
Additionally, improvements in motor performance were more obvious when the treadmill training was initiated at earlier time points after SCT. Therefore, training was initiated as early as 1 week after SCT. The fixed parameters were set at 50% body weight support (BWS), 20 min/day and 5 days/week. The animals were adapted to the training via increasing velocity; a velocity of 1 cm/s was used in the first week, and then the velocity was increased by 2 cm/s every 2 weeks for the first 2 months after injury (i.e., 1 cm/s to 3 cm/s to 5 cm/s). […] Once the rats dragged their hindlimbs and stopped walking on the treadmill, a trainer brought their bodies back to the original walking position. The step ability of SCT rats on the treadmill improved gradually over the course of the first 2 months following injury. However, this improvement was attenuated at time points later than 2 months after injury.
To evaluate the locomotor capability of SCT rats in detail, the aforementioned robotic device was employed. Each robotic arm tracked the two-dimensional movement of the ankle, and the trajectory of the ankle movement was then recorded on a computer for kinematic analyses. Not all the rats were able to walk by themselves on the treadmill by the last time point of the experiment. Therefore, when performing the tests, the degree of BWS and treadmill speed were titrated to obtain the maximum walking performance on the treadmill. As a result of this titration, the behavioral tests were performed at 70% BWS and a treadmill velocity of 1 cm/s each month after SCT. The duration of testing was 1 min per rat to minimize training effects during testing. The methods of previous reports were followed with slight adaptations. Briefly, the ankle trajectory in each plane was recorded by the robotic arm and a computer. Then, the toe off (TO) and paw contact (PC) events in each step cycle were identified using Rodent Robot 3000 software. All kinematic characteristics were obtained when TO and PC were identified; as a result, parameters such as the duration phase, the swing phase of the step cycle and the length and height of the step were calculated. The number of animals used in these behavioral tests was 32 (control: n = 9, SM-345431: n = 12, combined: n = 11).

SCT adult rats [2] = test: Remyelination after SCT (MBP/GAP43 immunostaining, electron microscopy); assay type: in vivo, rat
Description: as §1
A total of 53 adult female Sprague-Dawley rats (200-250 g, 10-12 weeks old) were used in this study (3 rats died during the experimental period and were excluded from the statistical analysis). All procedures were approved by the experimental animal care committee of Keio University, School of Medicine and Murayama Medical Center (approval #12-8). All rats were anesthetized with an intraperitoneal injection of ketamine (100 mg/kg)/xylazine (10 mg/kg). The spinal cord at the level of the T10 lamina was exposed by T10 laminectomy, and the dorsal dura mater was opened. […] Kinematic data were recorded using similar procedures prior to re-transection surgery (on the same day) and on the day following re-transection surgery. […]

[3] = SM-345431 alone, 70% BWS, 1 cm/s

CC(=O)c1cc2c(=O)c3c(C(=O)O)c(O)c(O)cc3oc2c(C(C)=O)c1-c1coc2cc(O)c(O)c(C(=O)O)c2c1=O [SM-345431, Vinaxanthone]
plantar step walking on a treadmill with the BSS (SCT adult rats [1]; SM-345431 alone, without extensive treadmill training): did not result in plantar step walking | effect on the step height parameter (SCT adult rats [1]; [3]): moderate and statistically insignificant | locomotor function on a treadmill, step length parameters (average and maximum) (SCT adult rats [1]; [3]): improved locomotor function | step cycle area versus control SCT rats (SCT adult rats [1]; SM-345431 alone, P < 0.05 at 3 months): statistically significant enhancement | effect on the step height parameter (average and maximum) (SCT adult rats [1]; SM-345431 combined with extensive treadmill training): greater enhancement was observed | duration of continuous plantar step walking on a treadmill with the BSS (SCT adult rats [1]; SM-345431 combined with extensive treadmill training, all rats): at least 30 min | step cycle area versus control SCT rats (SCT adult rats [1]; SM-345431 combined with treadmill training, P < 0.05 first month, P < 0.01 second and third month): even greater improvement | remyelination of axons (myelinated GAP43-positive axons at the lesion site) (SCT adult rats [2]; SM-345431 alone, 12 weeks post-injury): significantly enhanced the remyelination of axons | remyelination of axons (myelinated GAP43-positive axons at the lesion site) (SCT adult rats [2]; SM-345431 plus treadmill training, compared with SM-345431 alone): additional remyelination was not observed

Source: article PMC4008261, “Rewiring of regenerated axons by combining treadmill training with semaphorin3A inhibition” (Molecular Brain, 2014)
